We go through two compounds from patent US20230372433A1, “NANOPARTICLE FOR ANTI-CANCER PEPTIDES AND USES THEREOF” (KING'S COLLEGE LONDON, priority 2020, published 2023).

In data set [1] the test system is HMLER-shEcad cells. Briefly: HMLER-shEcad viability with co-incubated necrostatin or z-VAD-FMK. In kind it is cell-based, human.
Data set [2] relates to HMLER-shEcad (human breast cancer stem cell). Kind of data set: MTT cytotoxicity assay, HMLER-shEcad. The class given is cell-based. To be noted: Homo sapiens. In general terms: Tetrazolium dyes change colour on reduction, which living cells bring about.
In data set [3] the test system is HMLER-shEcad mammospheres. Briefly: Tumoursphere formation and viability assay. In kind it is cell-based, human.
Data set [4] relates to MCF-10A (human breast epithelial cell). Kind of data set: cells. The conditions noted are these: Homo sapiens, MCF-10A, 72 h, read-out: IC50 MCF-10A.
The test system of data set [5] is HEK293T (human embryonic kidney cell). Briefly: MTT cytotoxicity assay, HEK293T. The conditions noted are these: Homo sapiens, HEK-293T; 72 hr, MTT; read-out: IC50 HEK293T. The class given is cell-based.
The test system of data set [6] is U2OS (human bone osteosarcoma). Kind of data set: MTT cytotoxicity assay, U2OS. The class given is cell-based. The conditions noted are these: Homo sapiens, U2OS, 72 hr.
The subject of data set [7] is HMLER (human breast cancer bulk cell). Briefly: MTT cytotoxicity assay, HMLER. In kind it is cell-based. To be noted: Homo sapiens; 72 hr, MTT; read-out: IC50 HMLER.
Data set [8] is described as follows: Tryptophan fluorescent binding assay, 3POPC/1POPG vesicles. To be noted: 50 μM peptide, PBS pH 7.4. The method in brief: (§1)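 Tryptophan fluorescence was measured with peptide fixed at 50 μM and POPC or 3POPC/1POPG LUVs (100 nm extruded) titrated 0–5000 μM in PBS pH 7.4, read after 60 min. Excitation was 280 nm and emission 300–450 nm. The value is the lipid concentration giving 50% peptide binding, expressed as lipid per peptide.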

A short description of data set [9]: Tryptophan fluorescent binding assay, POPC vesicles. The conditions noted are these: 50 μM peptide, PBS pH 7.4. Put shortly: as §1
Data set [10] can be described thus: ANTS/DPX liposome leakage assay, 3POPC/1POPG vesicles. The class given is biochemical. The method in brief:
(§2)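 0.5 mM extruded 100 nm LUVs loaded with 5 mM ANTS/12.5 mM DPX were incubated 3 h with peptide at 0–20 μM in PBS pH 7.4 or HCl-adjusted PBS pH 4.8. Fluorescence read at ex 350/em 510 nm; 10% Triton set maximum leakage; values expressed as lipid per peptide.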

Data set [11] can be described thus: ANTS/DPX liposome leakage assay, POPC vesicles. The class given is biochemical. To be noted: 0.5 mM vesicles. The method in brief: as §2
For data set [12], the system named is human red blood cells. The method, then: Peptides were serially diluted in PBS starting at a concentration of 100 μM. The final volume of peptide in each well was 50 μL. To each well, 50 μL of RBCs in PBS at 2×10^8 cells/mL was added. As a positive lysis control, 1% triton was used. The mixtures were incubated at 37° C. for 1 hour, after which they were centrifuged at 1000x g for 5 minutes. After centrifugation, 10 μL of supernatant was transferred to 90 μL of DI H2O in a fresh 96-well plate. The absorbance of released hemoglobin at 410 nm was recorded and the fractional hemolysis was calculated based on the 100% and 0% lysis controls.

Like-named read-outs stand apart in the source and are kept apart here.

A word on the IC50: it is the midpoint of a concentration-inhibition curve. For `COc1cccc2c1C(=O)c1c(O)c3c(c(O)c1C2=O)C[C@@](O)(C(=O)CO)C[C@@H]3O[C@H]1C[C@H](N)[C@H](O)[C@H](C)O1` [Doxorubicin, reference compound], the “cell viability on co-incubation with necrostatin or z-VAD-FMK” value in [1] is given as “can be dramatically improved”. Further, the half-maximal inhibitory concentration (IC50) worked out at 3 nM in [2] (72 hr, MTT, read-out: IC50 HMLER-shEcad); 2.5 ± 0.3 nM in [2] (two-dimensional culture, read-out: IC50 against two-dimensional HMLER-shEcad); 640 nM in data set [4]; 0.11 nM in data set [5]; 15 nM in data set [6]; 2.5 nM in data set [7]. Besides, in data set [3], the “fold decrease in activity, mammospheres versus two-dimensional HMLER-shEcad” value is reported as 1,700 fold.

On to `CC(C)C[C@H](NC(=O)CN)C(=O)N[C@@H](CC(C)C)C(=O)N[C@@H](CCC(=O)O)C(=O)N[C@@H](CC(C)C)C(=O)N[C@@H](CC(C)C)C(=O)N[C@@H](CCC(=O)O)C(=O)N[C@@H](CC(C)C)C(=O)N[C@@H](CC(C)C)C(=O)N[C@@H](CC(C)C)C(=O)N[C@@H](CCCCN)C(=O)N[C@@H](C)C(=O)N[C@@H](C)C(=O)NCC(=O)N[C@@H](Cc1c[nH]c2ccccc12)C(N)=O` [EEK], for which, in data set [8], the “Lipid Concentration-induced 50% Peptide Binding (L/P) 3POPC/1POPG Vesicle” value is on record as 4.50 L/P. For the same compound, the “cell viability on co-incubation with necrostatin or z-VAD-FMK” value in data set [1] is “cannot be improved”. In data set [9], the “Lipid Concentration-induced 50% Peptide Binding (L/P) POPC Vesicle” value was determined as 0.48 L/P. Moreover, in data set [10] (0.5 mM vesicles, pH 4.8), the “Peptide Concentration-induced 50% ANTS/DPX leakage at pH 4.8 (L/P) 3POPC/1POPG Vesicle” value was found to be 386 L/P. Further, the “Peptide Concentration-induced 50% ANTS/DPX leakage at pH 7.4 (L/P) 3POPC/1POPG Vesicle” value in data set [10] (0.5 mM vesicles, pH 7.4) came out at 657 L/P. The “liposome leakage activity from anionic vesicle at pH 4.8” value in [10] (compared with zwitterionic vesicle, pH 4.8) was “relatively higher liposome leakage activity”. For the same compound, the “Peptide Concentration-induced 50% ANTS/DPX leakage at pH 4.8 (L/P) POPC Vesicle” value in [11] (pH 4.8) came out at 39 L/P. Also, the “Peptide Concentration-induced 50% ANTS/DPX leakage at pH 7.4 (L/P) POPC Vesicle” value in data set [11] (pH 7.4) is 730 L/P. Further, the “concentration below which minimal lysis is caused” value in data set [12] is “below 90 μM”.
